Laboratory results reported in US20210121426A1, “BLOOD PURIFICATION BY ALKALINIZING AGENT” (TOHOKU UNIVERSITY, priority 2017, published 2021).
Marks after values point to notes of the source that are not given here.

How the values were obtained:
hippuric acid = assay: Human clinical trial in CKD patients: hippuric acid in plasma and early morning urine (LC-MS/MS); assay type: in vivo; design: key to Influence on concentration of HA / Influence on HA U/P ratio: Excellent effects: ◯; Poor effects: X; No significant difference: —; (◯): whether or not there is an effect of promoting excretion of indoxyl sulfate into the urine cannot be determined
Procedure: (§1) 1. […] Patients were assigned to each group so that age, sex, presence of diabetes, and eGFR were not biased. Each group was treated according to the “CKD medical care guide-summary of treatment” (hereinafter referred to as standard treatment).
(§2) An alkalinizing agent was not administered to the control group. […] A pH of early morning urine was controlled over time so that the dosage could be increased up to 6 tablets, 3 times a day (morning, noon, evening) as needed according to the discretion of the physician in cases where a pH of early morning urine was less than pH 6.5. To the group B, 3 tablets a day in which each tablet contained 500 mg of sodium bicarbonate were orally administered 3 times a day (morning, noon, evening) for 24 weeks. A pH of early morning urine was controlled over time so that the dosage could be increased up to 6 tablets, 3 times a day (morning, noon, evening) as needed according to the discretion of the physician in cases where a pH of early morning urine was less than pH 6.5.
(§3) Early morning urine and blood were collected before the start of administration, and 6 weeks, 12 weeks, and 24 weeks after the start of administration, and each specimen was stored at −80° C. Methods used in the present field for indoxyl sulfate, p-cresyl sulfate, phenylacetyl-L-glutamine, hippuric acid, and argininosuccinic acid in urine and blood (Sato, E., et. al., Metabolic alteration by indoxyl sulfate in skeletal muscle induce uremic sarcopenia in chronic kidney disease., Sci Rep. 2016 Nov. 10; 6:36618. doi: 10.1038/srep36618, and the like) were referred to, and quantitative analysis was performed using the following liquid chromatography triple quadrupole mass spectrometer (LC-MS/MS).
(§4) For LC, NANOSPACE SI-2 (manufactured by Shiseido) was used, and […] MGM was selected as the analytical column.
(§5) For MS, TSQ Quantiva (manufactured by Thermo Fisher Scientific Co., Ltd.) was used, and five compounds were ionized in the negative mode and detected using the Selected Reaction Monitoring method. The quantitative value was calculated using a calibration curve prepared with a standard solution of each compound.
(§6) For statistical analysis, the Mann-Whitney test was used for comparison between groups, and the Wilcoxon test was used for comparison of changes over time. The Pearson test was used for correlation.
(§7) Then, the average value and SD of each group were calculated for (i) to (ix) above. For each of (iv) to (ix) above, the average value and SD of each group were calculated for all data of 6 weeks, 12 weeks, and 24 weeks after the start of administration in each group.

argininosuccinic acid = assay: Urine argininosuccinic acid (ASA) corrected by urinary specific gravity; assay type: in vivo, human
Description: Medical Examination, Vol. 44, No. 1, 1995, pages 79-83 by Tetsuo Aoki et al. was referred to. A urinary specific gravity 1.022 was converted into a reference value.
Specific gravity correction value (unit/1.022·UG)=actual measurement value×(1.022−1.000)/(specific gravity value−1.000)

indoxyl sulfate [1] = assay: Human clinical trial in CKD patients: indoxyl sulfate in plasma and early morning urine (LC-MS/MS); assay type: in vivo; design: key to Influence on concentration of IS / Influence on IS U/P ratio: Excellent effects: ◯; Poor effects: X; No significant difference: —; (◯): whether or not there is an effect of promoting excretion of indoxyl sulfate into the urine cannot be determined
Procedure: as §1, §2, §3, §4, §5, §6, §7

indoxyl sulfate [2] = assay: Urine indoxyl sulfate (IS) corrected by urine osmotic pressure; assay type: in vivo, human
Description: Medical Examination, Vol. 44, No. 1, 1995, pages 79-83 by Tetsuo Aoki et al. was referred to. In addition, a urine osmotic pressure 770 mOsm/kg was converted into a reference value.
Osmotic pressure correction value (unit/500 mOsm·P)=actual measurement value×500/osmotic pressure value

[3] = 0 W, before the start of administration
[4] = 6-24 W, all data of 6, 12 and 24 weeks
[5] = Plasma, comparison with reference drug
[6] = Urine, comparison with reference drug
[7] = compared to before administration

`O=C([O-])O.[Na+]` [Bicarbonate, sodium bicarbonate] was tested, and the “Hippuric Acid-Urine/Plasma ratio” value (hippuric acid; [3]) was 304.5 ± 361.8, the “Plasma Hippuric Acid” value (hippuric acid; [3]) was 742 ± 706 ng/mL and the “Urine Hippuric Acid (early morning urine)” value (hippuric acid; [3]) was 109249 ± 96133 ng/mL. For the same compound, the “Hippuric Acid-Urine/Plasma ratio” value (hippuric acid; [4]) was 265.8 ± 812.9, the “Hippuric Acid-Urine/Plasma ratio, change from week 0” value (hippuric acid; [4]) was −50.2 ± 688.3^b and the “Plasma Hippuric Acid” value (hippuric acid; [4]) was 1091 ± 991 ng/mL. The “Plasma Hippuric Acid, change from week 0” value (hippuric acid; [4]) was 342.1 ± 838.5 ^e ng/mL, the “Urine Hippuric Acid (early morning urine)” value (hippuric acid; [4]) was 103027 ± 76475 ng/mL and the “Urine Hippuric Acid, change from week 0” value (hippuric acid; [4]) was -6221 ± 73493 ng/mL. The “Hippuric Acid-Urine/Plasma ratio” value (hippuric acid; 6 W) was 148.7 ± 119.2^f, the “Hippuric Acid-Urine/Plasma ratio, change from week 0” value (hippuric acid; 6 W) was −155.8 ± 312.2^a and the “Plasma Hippuric Acid” value (hippuric acid; 6 W) was 809 ± 496 ng/mL. The “Plasma Hippuric Acid, change from week 0” value (hippuric acid; 6 W) was 66.6 ± 681.8 ng/mL, the “Urine Hippuric Acid (early morning urine)” value (hippuric acid; 6 W) was 98283 ± 80730 ng/mL and the “Urine Hippuric Acid, change from week 0” value (hippuric acid; 6 W) was -10966 ± 75133 ng/mL. For the same compound, the “Hippuric Acid-Urine/Plasma ratio” value (hippuric acid; 12 W) was 151.8 ± 115.8, the “Hippuric Acid-Urine/Plasma ratio, change from week 0” value (hippuric acid; 12 W) was −161.2 ± 302.1 and the “Plasma Hippuric Acid” value (hippuric acid; 12 W) was 994 ± 806 ng/mL. For the same compound, the “Plasma Hippuric Acid, change from week 0” value (hippuric acid; 12 W) was 230.0 ± 655.6 ng/mL, the “Urine Hippuric Acid (early morning urine)” value (hippuric acid; 12 W) was 96346 ± 70315 ng/mL and the “Urine Hippuric Acid, change from week 0” value (hippuric acid; 12 W) was -12903 ± 61236 ng/mL. For the same compound, the “Hippuric Acid-Urine/Plasma ratio” value (hippuric acid; 24 W) was 523.0 ± 1438, the “Hippuric Acid-Urine/Plasma ratio, change from week 0” value (hippuric acid; 24 W) was 191.1 ± 1147 and the “Plasma Hippuric Acid” value (hippuric acid; 24 W) was 1465 ± 1387^c ng/mL. The “Plasma Hippuric Acid, change from week 0” value (hippuric acid; 24 W) was 722.3 ± 1023 ^c ng/mL, the “Urine Hippuric Acid (early morning urine)” value (hippuric acid; 24 W) was 114453 ± 81562 ng/mL and the “Urine Hippuric Acid, change from week 0” value (hippuric acid; 24 W) was 5204 ± 85546 ng/mL. The “Influence on concentration of HA” value (hippuric acid; Plasma, comparison with Cont) was “X”, the “Influence on concentration of HA” value (hippuric acid; [5]) was “—” and the “Influence on HA U/P ratio” value (hippuric acid; comparison with Cont) was “X”. For the same compound, the “Influence on HA U/P ratio” value (hippuric acid; comparison with reference drug) was “—”, the “Influence on concentration of HA” value (hippuric acid; Urine, comparison with Cont) was “—” and the “Influence on concentration of HA” value (hippuric acid; [6]) was “—”. The “Urine ASA, specific gravity corrected” value (argininosuccinic acid; 0 W) was 5.87 ± 5.13 μg · mL^−1/1.022 · UG, the “Urine ASA, specific gravity corrected” value (argininosuccinic acid; 6-24 W, all data) was 5.02 ± 3.37 μg · mL^−1/1.022 · UG and the “Urine ASA, specific gravity corrected, % Relative value vs week 0” value (shortened to “Urine ASA … % Relative value vs week 0”) (argininosuccinic acid; 6-24 W, all data) was 97 ± 31%. The “Urine ASA, specific gravity corrected, difference vs week 0” value (from here on “Urine ASA … difference vs week 0”) (argininosuccinic acid; 6-24 W, all data) was −0.85 ± 2.76 μg · mL^−1/1.022 · UG, the “Urine ASA, specific gravity corrected” value (argininosuccinic acid; 6 W) was 5.47 ± 3.87 μg · mL^−1/1.022 · UG and the “Urine ASA … % Relative value vs week 0” value (argininosuccinic acid; 6 W) was 101 ± 32%. The “Urine ASA … difference vs week 0” value (argininosuccinic acid; 6 W) was −0.40 ± 2.25 μg · mL^−1/1.022 · UG, the “Urine ASA, specific gravity corrected” value (argininosuccinic acid; 12 W) was 4.66 ± 2.78 μg · mL^−1/1.022 · UG and the “Urine ASA … % Relative value vs week 0” value (argininosuccinic acid; 12 W) was 93 ± 29%. For the same compound, the “Urine ASA … difference vs week 0” value (argininosuccinic acid; 12 W) was −0.21 ± 3.04 μg · mL^−1/1.022 · UG, the “Urine ASA, specific gravity corrected” value (argininosuccinic acid; 24 W) was 4.93 ± 3.58 μg · mL^−1/1.022 · UG and the “Urine ASA … % Relative value vs week 0” value (argininosuccinic acid; 24 W) was 97 ± 33%. For the same compound, the “Urine ASA … difference vs week 0” value (argininosuccinic acid; 24 W) was −0.94 ± 3.02 μg · mL^−1/1.022 · UG, the “Indoxyl Sulfate-Urine/Plasma ratio” value (indoxyl sulfate [1]; [3]) was 55.5 ± 43.6 and the “Plasma Indoxyl Sulfate” value (indoxyl sulfate [1]; [3]) was 1338 ± 770 ng/mL. For the same compound, the “Urine Indoxyl Sulfate (early morning urine)” value (indoxyl sulfate [1]; [3]) was 54379 ± 40259 ng/mL, the “Indoxyl Sulfate-Urine/Plasma ratio” value (indoxyl sulfate [1]; [4]) was 46.2 ± 33.7^d and the “Indoxyl Sulfate-Urine/Plasma ratio, change from week 0” value (indoxyl sulfate [1]; [4]) was −10.33 ± 36.35. The “Plasma Indoxyl Sulfate” value (indoxyl sulfate [1]; [4]) was 1426 ± 930 ng/mL, the “Plasma Indoxyl Sulfate, change from week 0” value (indoxyl sulfate [1]; [4]) was 107.0 ± 695.8 ng/mL and the “Urine Indoxyl Sulfate (early morning urine)” value (indoxyl sulfate [1]; [4]) was 48954 ± 35769^d ng/mL. For the same compound, the “Urine Indoxyl Sulfate, change from week 0” value (indoxyl sulfate [1]; [4]) was -5425 ± 38514 ng/mL, the “Indoxyl Sulfate-Urine/Plasma ratio” value (indoxyl sulfate [1]; 6 W) was 51.7 ± 36.4 and the “Indoxyl Sulfate-Urine/Plasma ratio, change from week 0” value (indoxyl sulfate [1]; 6 W) was −3.81 ± 37.48. For the same compound, the “Plasma Indoxyl Sulfate” value (indoxyl sulfate [1]; 6 W) was 1365 ± 821 ng/mL, the “Plasma Indoxyl Sulfate, change from week 0” value (indoxyl sulfate [1]; 6 W) was 27.5 ± 523.0 ng/mL and the “Urine Indoxyl Sulfate (early morning urine)” value (indoxyl sulfate [1]; 6 W) was 52510 ± 39229 ng/mL. For the same compound, the “Urine Indoxyl Sulfate, change from week 0” value (indoxyl sulfate [1]; 6 W) was -1869 ± 19390 ng/mL, the “Indoxyl Sulfate-Urine/Plasma ratio” value (indoxyl sulfate [1]; 12 W) was 35.3 ± 26.4 and the “Indoxyl Sulfate-Urine/Plasma ratio, change from week 0” value (indoxyl sulfate [1]; 12 W) was −22.41 ± 35.49. The “Plasma Indoxyl Sulfate” value (indoxyl sulfate [1]; 12 W) was 1432 ± 1031 ng/mL, the “Plasma Indoxyl Sulfate, change from week 0” value (indoxyl sulfate [1]; 12 W) was 153.1 ± 887.4 ng/mL and the “Urine Indoxyl Sulfate (early morning urine)” value (indoxyl sulfate [1]; 12 W) was 37860 ± 26401 ng/mL. For the same compound, the “Urine Indoxyl Sulfate, change from week 0” value (indoxyl sulfate [1]; 12 W) was -16519 ± 40380 ng/mL, the “Indoxyl Sulfate-Urine/Plasma ratio” value (indoxyl sulfate [1]; 24 W) was 50.7 ± 36.5^c and the “Indoxyl Sulfate-Urine/Plasma ratio, change from week 0” value (indoxyl sulfate [1]; 24 W) was −4.78 ± 35.33. For the same compound, the “Plasma Indoxyl Sulfate” value (indoxyl sulfate [1]; 24 W) was 1481 ± 988 ng/mL, the “Plasma Indoxyl Sulfate, change from week 0” value (indoxyl sulfate [1]; 24 W) was 143.4 ± 682.5 ng/mL and the “Urine Indoxyl Sulfate (early morning urine)” value (indoxyl sulfate [1]; 24 W) was 56492 ± 39593 ng/mL. The “Urine Indoxyl Sulfate, change from week 0” value (indoxyl sulfate [1]; 24 W) was 2113 ± 49356 ng/mL, the “Influence on concentration of IS” value (indoxyl sulfate [1]; Plasma, comparison with Cont) was “—” and the “Influence on concentration of IS” value (indoxyl sulfate [1]; [5]) was “X”. For the same compound, the “Influence on IS U/P ratio” value (indoxyl sulfate [1]; comparison with Cont) was “◯”, the “Influence on IS U/P ratio” value (indoxyl sulfate [1]; comparison with reference drug) was “X” and the “Influence on concentration of IS” value (indoxyl sulfate [1]; Urine, comparison with Cont) was “(◯)”. For the same compound, the “Influence on concentration of IS” value (indoxyl sulfate [1]; [6]) was “X”, the “concentration of indoxyl sulfate in blood” value (indoxyl sulfate [1]; [7]) was “such an effect was not recognized” and the “concentration of indoxyl sulfate in urine” value (indoxyl sulfate [1]; [7]) was “such an effect was not recognized”. The “Urine IS, osmotic pressure corrected” value (indoxyl sulfate [2]; 0 W) was 87.9 ± 40.0 μg · mL^−1/770 mOsm · P, the “Urine IS, osmotic pressure corrected” value (indoxyl sulfate [2]; 6-24 W, all data) was 77.0 ± 42.5 μg · mL^−1/770 mOsm · P and the “Urine IS, osmotic pressure corrected, % Relative value vs week 0” value (shortened to “Urine IS … % Relative value vs week 0”) (indoxyl sulfate [2]; 6-24 W, all data) was 93 ± 49%. For the same compound, the “Urine IS, osmotic pressure corrected” value (indoxyl sulfate [2]; 6 W) was 82.9 ± 44.6 μg · mL^−1/770 mOsm · P, the “Urine IS … % Relative value vs week 0” value (indoxyl sulfate [2]; 6 W) was 98 ± 30% and the “Urine IS … % Relative value vs week 0” value (indoxyl sulfate [2]; 12 W) was 77 ± 39%. For the same compound, the “Urine IS, osmotic pressure corrected” value (indoxyl sulfate [2]; 24 W) was 84.4 ± 48.4 μg · mL^−1/770 mOsm · P and the “Urine IS … % Relative value vs week 0” value (indoxyl sulfate [2]; 24 W) was 104 ± 68%.
